Reference: ChEMBL document CHEMBL4765323, “Design, synthesis, and biological evaluation of novel miconazole analogues containing selenium as potent antifungal agents” (Eur J Med Chem, 2020)
Converted amounts (≈) assume the structure as drawn.

Columns and labels:
Format in all cases: functional
Candida albicans [1] = assay: Antifungal activity against Candida albicans CPCC400616 measured after 24 hrs by micro-broth dilution assay
Candida albicans [2] = assay: Antifungal activity against Candida albicans ATCC SC5314 measured after 24 hrs by micro-broth dilution assay
[Candida] zeylanoides = Antifungal activity against Candida zeylanoides CMGCC2.3739 measured after 24 hrs by micro-broth dilution assay; settings: Dujonia zeylanoides
Cryptococcus neoformans = assay: Antifungal activity against Cryptococcus neoformans CGMCC2.3161 measured after 72 hrs by micro-broth dilution assay
Pichia kudriavzevii = assay: Antifungal activity against Candida krusei AS 2.1045 measured after 24 hrs by micro-broth dilution assay
Nakaseomyces glabratus = assay: Antifungal activity against clinical isolate Candida glabrata measured after 24 hrs by micro-broth dilution assay
Candida parapsilosis = assay: Antifungal activity against Candida parapsilosis ATCC 22019 measured after 24 hrs by micro-broth dilution assay; settings: Lodderomyces parapsilosis
Aspergillus fumigatus = assay: Antifungal activity against Aspergillus fumigatus CGMCC 3.7795 measured after 72 hrs by micro-broth dilution assay
Candida albicans [3] = assay: Antifungal activity against fluconazole-resistant Candida albicans CaR measured after 24 hrs by micro-broth dilution assay
Candida albicans [4] = assay: Antifungal activity against fluconazole-resistant Candida albicans 17 measured after 24 hrs by micro-broth dilution assay
Candida albicans [5] = assay: Antifungal activity against fluconazole-resistant Candida albicans 632 measured after 24 hrs by micro-broth dilution assay
Candida albicans [6] = assay: Antifungal activity against Candida albicans 901 measured after 24 hrs by micro-broth dilution assay
Candida albicans [7] = assay: Antifungal activity against fluconazole-resistant Candida albicans strain 904 measured after 24 hrs by micro-broth dilution assay

Compound	MIC (Candida albicans [1])	MIC (Candida albicans [2])	MIC ([Candida] zeylanoides)	MIC (Cryptococcus neoformans)	MIC (Pichia kudriavzevii)	MIC (Nakaseomyces glabratus)	MIC (Candida parapsilosis)	MIC (Aspergillus fumigatus)	MIC (Candida albicans [3])	MIC (Candida albicans [4])	MIC (Candida albicans [5])	MIC (Candida albicans [6])	MIC (Candida albicans [7])
Fc1cccc(C[Se]C(Cn2ccnc2)c2ccc(Cl)cc2Cl)c1 (stereo not given)	0.03 µg/mL (≈ 0.0701 µM)	0.03 µg/mL (≈ 0.0701 µM)	1 µg/mL (≈ 2.34 µM)	0.25 µg/mL (≈ 0.584 µM)	2 µg/mL (≈ 4.67 µM)	0.5 µg/mL (≈ 1.17 µM)	0.02 µg/mL (≈ 0.0467 µM)	2 µg/mL (≈ 4.67 µM)	1 µg/mL (≈ 2.34 µM)	0.5 µg/mL (≈ 1.17 µM)	1 µg/mL (≈ 2.34 µM)	0.25 µg/mL (≈ 0.584 µM)	0.25 µg/mL (≈ 0.584 µM)
Fc1ccc(C[Se]C(Cn2ccnc2)c2ccc(F)cc2F)cc1 (stereo not given)	0.06 µg/mL (≈ 0.152 µM)	0.03 µg/mL (≈ 0.0759 µM)	1 µg/mL (≈ 2.53 µM)	0.5 µg/mL (≈ 1.26 µM)	1 µg/mL (≈ 2.53 µM)	1 µg/mL (≈ 2.53 µM)	0.25 µg/mL (≈ 0.632 µM)	2 µg/mL (≈ 5.06 µM)	8 µg/mL (≈ 20.2 µM)	32 µg/mL (≈ 81 µM)	32 µg/mL (≈ 81 µM)	4 µg/mL (≈ 10.1 µM)	8 µg/mL (≈ 20.2 µM)
Fc1ccc(C[Se]C(Cn2ccnc2)c2ccc(Cl)cc2Cl)cc1 (stereo not given)	0.03 µg/mL (≈ 0.0701 µM)	0.03 µg/mL (≈ 0.0701 µM)	4 µg/mL (≈ 9.34 µM)	0.25 µg/mL (≈ 0.584 µM)	1 µg/mL (≈ 2.34 µM)	0.13 µg/mL (≈ 0.304 µM)	0.5 µg/mL (≈ 1.17 µM)	2 µg/mL (≈ 4.67 µM)	16 µg/mL (≈ 37.4 µM)	4 µg/mL (≈ 9.34 µM)	128 µg/mL (≈ 299 µM)	32 µg/mL (≈ 74.7 µM)	64 µg/mL (≈ 149 µM)
Cc1ccc(C[Se]C(Cn2ccnc2)c2ccc(F)cc2F)cc1C (stereo not given)	0.5 µg/mL (≈ 1.23 µM)	0.13 µg/mL (≈ 0.321 µM)	1 µg/mL (≈ 2.47 µM)	0.5 µg/mL (≈ 1.23 µM)	8 µg/mL (≈ 19.7 µM)	1 µg/mL (≈ 2.47 µM)	1 µg/mL (≈ 2.47 µM)	2 µg/mL (≈ 4.93 µM)	128 µg/mL (≈ 316 µM)	64 µg/mL (≈ 158 µM)	> 128 µg/mL	128 µg/mL (≈ 316 µM)	> 128 µg/mL
Cc1cccc(C[Se]C(Cn2ccnc2)c2ccc(Cl)cc2Cl)c1 (stereo not given)	0.03 µg/mL (≈ 0.0707 µM)	0.03 µg/mL (≈ 0.0707 µM)	16 µg/mL (≈ 37.7 µM)	0.25 µg/mL (≈ 0.589 µM)	4 µg/mL (≈ 9.43 µM)	0.5 µg/mL (≈ 1.18 µM)	1 µg/mL (≈ 2.36 µM)	8 µg/mL (≈ 18.9 µM)	4 µg/mL (≈ 9.43 µM)	4 µg/mL (≈ 9.43 µM)	2 µg/mL (≈ 4.71 µM)	2 µg/mL (≈ 4.71 µM)	2 µg/mL (≈ 4.71 µM)
Fc1ccc(C(Cn2ccnc2)[Se]Cc2ccccc2Cl)c(F)c1 (stereo not given)	0.25 µg/mL (≈ 0.607 µM)	0.01 µg/mL (≈ 0.0243 µM)	0.25 µg/mL (≈ 0.607 µM)	0.5 µg/mL (≈ 1.21 µM)	0.25 µg/mL (≈ 0.607 µM)	1 µg/mL (≈ 2.43 µM)	0.06 µg/mL (≈ 0.146 µM)	2 µg/mL (≈ 4.86 µM)	2 µg/mL (≈ 4.86 µM)	1 µg/mL (≈ 2.43 µM)	0.5 µg/mL (≈ 1.21 µM)	1 µg/mL (≈ 2.43 µM)	0.5 µg/mL (≈ 1.21 µM)
Clc1ccc(C(Cn2ccnc2)[Se]Cc2ccccc2)c(Cl)c1 (stereo not given)	0.06 µg/mL (≈ 0.146 µM)	0.02 µg/mL (≈ 0.0488 µM)	0.5 µg/mL (≈ 1.22 µM)	0.5 µg/mL (≈ 1.22 µM)	0.5 µg/mL (≈ 1.22 µM)	0.5 µg/mL (≈ 1.22 µM)	0.25 µg/mL (≈ 0.609 µM)	0.5 µg/mL (≈ 1.22 µM)	4 µg/mL (≈ 9.75 µM)	4 µg/mL (≈ 9.75 µM)	2 µg/mL (≈ 4.88 µM)	1 µg/mL (≈ 2.44 µM)	0.5 µg/mL (≈ 1.22 µM)
Clc1ccc(C[Se]C(Cn2ccnc2)c2ccc(Cl)cc2Cl)c(Cl)c1 (stereo not given)	0.06 µg/mL (≈ 0.125 µM)	0.06 µg/mL (≈ 0.125 µM)	2 µg/mL (≈ 4.17 µM)	0.5 µg/mL (≈ 1.04 µM)	2 µg/mL (≈ 4.17 µM)	0.25 µg/mL (≈ 0.522 µM)	2 µg/mL (≈ 4.17 µM)	0.5 µg/mL (≈ 1.04 µM)	128 µg/mL (≈ 267 µM)	16 µg/mL (≈ 33.4 µM)	64 µg/mL (≈ 134 µM)	32 µg/mL (≈ 66.8 µM)	8 µg/mL (≈ 16.7 µM)
Fc1ccc(C(Cn2ccnc2)[Se]Cc2ccc(Br)cc2)c(F)c1 (stereo not given)	0.25 µg/mL (≈ 0.548 µM)	0.13 µg/mL (≈ 0.285 µM)	0.25 µg/mL (≈ 0.548 µM)	0.5 µg/mL (≈ 1.1 µM)	1 µg/mL (≈ 2.19 µM)	2 µg/mL (≈ 4.38 µM)	0.25 µg/mL (≈ 0.548 µM)	1 µg/mL (≈ 2.19 µM)	64 µg/mL (≈ 140 µM)	2 µg/mL (≈ 4.38 µM)	8 µg/mL (≈ 17.5 µM)	2 µg/mL (≈ 4.38 µM)	2 µg/mL (≈ 4.38 µM)
COc1cc(Br)c(C[Se]C(Cn2ccnc2)c2ccc(Cl)cc2Cl)cc1OC (stereo not given)	0.25 µg/mL (≈ 0.455 µM)	0.03 µg/mL (≈ 0.0546 µM)	> 128 µg/mL	0.5 µg/mL (≈ 0.91 µM)	> 128 µg/mL	0.5 µg/mL (≈ 0.91 µM)	> 128 µg/mL	16 µg/mL (≈ 29.1 µM)	128 µg/mL (≈ 233 µM)	> 128 µg/mL	> 128 µg/mL	128 µg/mL (≈ 233 µM)	32 µg/mL (≈ 58.3 µM)
